Reference: patent publication US12227520B2 (priority 2019, dated 2025)
Read-outs that look alike come from different tables or passages of the source.

Columns and labels:
pLai RLuc reporter virus = assay: microbe, parasite or virus in culture; type: cell-based, HIV
Summary of the method: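 Read-out is Renilla luciferase after 72 h at 37 °C in MT-4 cells infected 2 h beforehand with pLai RLuc reporter virus; compounds diluted 1:3.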

[1] = Cytotoxicity assay in MT-4 cells; type: cell-based, human; conditions: human, uninfected MT-4 cells, 5 days incubation; read-out: CC50
Summary of the method: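 For cytotoxicity, uninfected MT-4 cells were incubated with compounds 5 days at 37 °C, with 10 μM puromycin marking base cytotoxicity. Parallel plates used HIV-1 IIIB-infected (1:250 stock dilution) or mock cells with 5 μM AZT and no-drug controls. Read-out: CellTiter-Glo chemiluminescence.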

HIV-1 (IIIB) = assay: Antiviral assay in MT-4 cells (HIV MT-4 antiviral assay); type: cell-based; conditions: Human immunodeficiency virus 1, IIIB, MT4, 120 h, HIV-1 (IIIB) in MT-4 cells, 5 days incubation
Summary of the method: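 Read-out is CellTiter-Glo chemiluminescence after 5-day culture at 37° C, giving protection of MT-4 cells from HIV-1 IIIB cytopathicity. Compounds tested in 1:3 dilution series in complete RPMI; controls were no drug, mock infection and 5 μM AZT.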

[2] = Human immunodeficiency virus 1, 72 h, read-out: Antiviral Serum Shift RLuc 50% HS, HS/CCM (RPMI media, 10% FBS, 50% HS, 1% P/S), 72-h incubation
[3] = Human immunodeficiency virus 1, 72 h, read-out: Antiviral Serum Shift RLuc CCM, CCM (RPMI media, 10% FBS, 1% P/S), 72-h incubation

Compound | EC50 (pLai RLuc reporter virus; [2]) | EC50 (pLai RLuc reporter virus; [3]) | CC50 at 5 days [1] | EC50 (HIV-1 (IIIB); read-out: EC50) | EC50 (pLai RLuc reporter virus; read-out: Antiviral Serum Shift RLuc 50% HS, HS/CCM (RPMI media, 10% FBS, 50% HS, 1% P/S), 72-h incubation) | EC50 (HIV-1 (IIIB))
O=C(NCc1ccc(F)cc1F)c1cn2c(c(O)c1=O)C(=O)N1CCCC3(CC3)[C@@H]2C1 [Example 57-2, (7′R)—N-(2,4-difluorobenzyl)-12′-hydroxy-1′,11′-dioxo-1′,4′,5′,11′-tetrahydro-3′H,7′H-spiro[cyclopropane-1,6′-[2,7]methanopyrido[1,2-a][1,4]diazonine]-10′-carboxamide] | 133 nM | 0.396 nM | 8910 nM | 1.77 nM |  | 
O=C(NCc1ccc(F)cc1F)c1cn2c(c(O)c1=O)C(=O)N1CC3CC3CC2C1 (single isomer, unassigned) [Example 42-1, N-(2,4-difluorobenzyl)-5-hydroxy-4,6-dioxo-1,1a,2,4,6,10,11,11a-octahydro-3,10-methanocyclopropa[f]pyrido[1,2-a][1,4]diazonine-7-carboxamide] | 1.34 nM | 0.28 nM | 7490 nM | 1.6 nM |  | 
CC1CCCN2CC1n1cc(C(=O)NCc3ccc(F)cc3F)c(=O)c(O)c1C2=O (stereo not shown) [Example 17-1b, N-(2,4-difluorobenzyl)-12-hydroxy-6-methyl-1,11-dioxo-1,4,5,6,7,11-hexahydro-3H-2,7-methanopyrido[1,2-a][1,4]diazonine-10-carboxamide] |  | 0.26 nM | 10900 nM | 1.2 nM | 3.1 nM | 
O=C(NCc1c(F)cc(F)cc1F)c1cn2c(c(O)c1=O)C(=O)N1CCCC[C@H]2C1 [Example 26-2, (7S)-12-hydroxy-1,11-dioxo-N-(2,4,6-trifluorobenzyl)-1,4,5,6,7,11-hexahydro-3H-2,7-methanopyrido[1,2-a][1,4]diazonine-10-carboxamide] | 2.29 nM | 0.353 nM | 14400 nM | 1.31 nM |  | 
C[C@H]1CCCN2CC1n1cc(C(=O)NCc3c(F)cc(F)cc3F)c(=O)c(O)c1C2=O (stereo partly drawn) [Example 190, (6S)-12-hydroxy-6-methyl-1,11-dioxo-N-(2,4,6-trifluorobenzyl)-1,4,5,6,7,11-hexahydro-3H-2,7-methanopyrido[1,2-a][1,4]diazonine-10-carboxamide] | 14.2 nM | 0.434 nM | 22800 nM |  |  | 1.81 nM
O=C(NCc1ccc(F)cc1F)c1cn2c(c(O)c1=O)C(=O)N1CC/C=C\C[C@H]2C1 [Example 44-2, (8S,Z)—N-(2,4-difluorobenzyl)-13-hydroxy-1,12-dioxo-1,3,4,7,8,12-hexahydro-2,8-methanopyrido[1,2-a][1,4]diazecine-11-carboxamide] | 36.8 nM | 0.264 nM | 15100 nM | 2.36 nM |  | 
O=C(NCc1c(F)cc(F)cc1F)c1cn2c(c(O)c1=O)C(=O)N1Cc3cc(F)c(F)cc3C[C@@H]2C1 (single isomer, unassigned) [Example 159] | 2.56 nM | 0.976 nM | > 43600 nM | 3.52 nM |  | 
O=C(NCc1ccc(F)cc1F)c1cn2c(c(O)c1=O)C(=O)N1CCC[C@H]3C[C@@]32C1 [Example 65-2, (1aS,11aS)—N-(2,4-difluorobenzyl)-7-hydroxy-6,8-dioxo-1a,2,3,4,6,8-hexahydro-1H-5,11a-methanocyclopropa[h]pyrido[1,2-a][1,4]diazonine-9-carboxamide] | 3.47 nM | 0.341 nM | 8820 nM | 1.66 nM |  | 
C[C@@H]1CCC[C@@H]2CN1C(=O)c1c(O)c(=O)c(C(=O)NCc3ccc(F)cc3F)cn12 [Example 52-3, (3R, 7R)—N-(2,4-difluorobenzyl)-12-hydroxy-3-methyl-1,11-dioxo-1,4,5,6,7,11-hexahydro-3H-2,7-methanopyrido[1,2-a][1,4]diazonine-10-carboxamide] | 114 nM | 0.589 nM | 15500 nM | 3.05 nM |  | 
O=C(NCc1ccc(F)cc1F)c1cn2c(c(O)c1=O)C(=O)N1CCC[C@@H]3C[C@]32C1 [Example 65-1, (1aR,11aR)—N-(2,4-difluorobenzyl)-7-hydroxy-6,8-dioxo-1a,2,3,4,6,8-hexahydro-1H-5,11a-methanocyclopropa[h]pyrido[1,2-a][1,4]diazonine-9-carboxamide] | 28.5 nM | 0.297 nM | 8800 nM | 1.73 nM |  | 
O=C(NCc1c(F)cc(F)cc1F)c1cn2c(c(O)c1=O)C(=O)N1C[C@@H]2CCc2c(F)cccc21 [Example 43-1, (12S)-1-fluoro-7-hydroxy-6,8-dioxo-N-(2,4,6-trifluorobenzyl)-6,8,13,14-tetrahydro-12H-5,12-methanobenzo[e]pyrido[1,2-a][1,4]diazonine-9-carboxamide] | 147 nM | 4.35 nM | 8100 nM | 41.5 nM |  | 
C[C@@H]1CO[C@H](C)[C@H]2CN1C(=O)c1c(O)c(=O)c(C(=O)NCc3ccc(F)cc3F)cn12 [Example 197, (3R,6R,7R)—N-(2,4-difluorobenzyl)-12-hydroxy-3,6-dimethyl-1,11-dioxo-1,3,4,6,7,11-hexahydro-2,7-methanopyrido[1,2-d][1,4,7]oxadiazonine-10-carboxamide] | 8.35 nM | 0.589 nM | 22400 nM | 1.49 nM |  | 
O=C(NCc1ccc(F)cc1F)c1cn2c(c(O)c1=O)C(=O)N1Cc3ccc(Cl)cc3C[C@H]2C1 (single isomer, unassigned) [Example 128-1] | 7.61 nM | 0.763 nM | > 47200 nM | 2.15 nM |  | 
C[C@H]1C=CC[C@H]2CN1C(=O)c1c(O)c(=O)c(C(=O)NCc3c(F)cc(F)cc3F)cn12 [Example 148, (3S,7S)-12-hydroxy-3-methyl-1,11-dioxo-N-(2,4,6-trifluorobenzyl)-1,6,7,11-tetrahydro-3H-2,7-methanopyrido[1,2-a][1,4]diazonine-10-carboxamide] | 6.34 nM | 0.182 nM | 13800 nM | 1.67 nM |  | 
O=C(NCc1c(F)cc(F)cc1F)c1cn2c(c(O)c1=O)C(=O)N1CCOC[C@@H]2C1 [Example 19, (7S)-12-hydroxy-1,11-dioxo-N-(2,4,6-trifluorobenzyl)-1,3,4,6,7,11-hexahydro-2,7-methanopyrido[1,2-d][1,4,7]oxadiazonine-10-carboxamide] | 4.35 nM | 1.21 nM | > 50000 nM | 4 nM |  | 
O=C(NCc1ccc(F)cc1F)c1cn2c(c(O)c1=O)C(=O)N1CCCC[C@H]2C1 (single isomer, unassigned) [Example 25-2] | 1.14 nM | 0.285 nM | 10800 nM | 1.46 nM |  | 
O=C(NCc1c(F)cc(F)cc1F)c1cn2c(c(O)c1=O)C(=O)N1CCC[C@@H]3C[C@]32C1 [Example 66-1, (1aR,11aR)—N-(2,4,6-trifluorobenzyl)-7-hydroxy-6,8-dioxo-1a,2,3,4,6,8-hexahydro-1H-5,11a-methanocyclopropa[h]pyrido[1,2-a][1,4]diazonine-9-carboxamide] | 20.3 nM | 0.226 nM | 11100 nM | 1.76 nM |  | 
O=C(NCc1c(F)cc(F)cc1F)c1cn2c(c(O)c1=O)C(=O)N1C[C@H]3CC[C@H](C3)[C@H]2C1 [Example 41-1, (4S,7R,8S)-13-hydroxy-1,12-dioxo-N-(2,4,6-trifluorobenzyl)-1,3,4,5,6,7,8,12-octahydro-2,8:4,7-dimethanopyrido[1,2-a][1,4]diazecine-11-carboxamide] | 6.64 nM | 0.335 nM | 15600 nM | 1.6 nM |  | 
O=C(NCc1c(F)cc(F)cc1F)c1cn2c(c(O)c1=O)C(=O)N1CCN(C(F)(F)F)CC2C1 (stereo not shown) [Example 141, 12-hydroxy-1,11-dioxo-N-(2,4,6-trifluorobenzyl)-5-(trifluoromethyl)-1,4,5,6,7,11-hexahydro-3H-2,7-methanopyrido[1,2-a][1,4,7]triazonine-10-carboxamide] | 199 nM | 29.6 nM | > 50000 nM | > 100 nM |  | 
O=C(NCc1cccc(Cl)c1F)c1cn2c(c(O)c1=O)C(=O)N1Cc3cc(F)c(F)cc3C[C@@H]2C1 [Example 143-1, (6R)—N-(3-chloro-2-fluorobenzyl)-9,10-difluoro-1-hydroxy-2,14-dioxo-2,7,12,14-tetrahydro-6H-6,13-methanobenzo[f]pyrido[1,2-a][1,4]diazonine-3-carboxamide] | 132 nM | 4.75 nM | > 50000 nM | 22.7 nM |  | 
O=C(NCc1ccc(F)cc1F)c1cn2c(c(O)c1=O)C(=O)N1C[C@@H]2CC=C[C@@H]1CF [Example 188] | 3.48 nM | 0.421 nM | 12200 nM |  |  | 1.19 nM
C[C@@H]1C=C[C@H](C)N2C[C@H]1n1cc(C(=O)NCc3c(F)cc(F)cc3F)c(=O)c(O)c1C2=O [Example 176, (3S,6R,7S)-12-hydroxy-3,6-dimethyl-1,11-dioxo-N-(2,4,6-trifluorobenzyl)-1,6,7,11-tetrahydro-3H-2,7-methanopyrido[1,2-a][1,4]diazonine-10-carboxamide] | 16.7 nM | 0.263 nM | 7770 nM | 0.829 nM |  | 
